Where two headings read alike, the source gives them in different places.

As usually defined, the IC50 is the concentration that gives 50% inhibition. The EC50 is the concentration giving half of the maximal effect.

Test [1] concerns the target Human Cot (Homo sapiens (Human), UniProt P41279). Put plainly: High Throughput Cot Biochemical Assay. The note with it: Cot HTRF (TR-FRET) biochemical assay. (In general: Time-resolved FRET reads energy transfer from a long-lived donor to a nearby acceptor.)
Test [2] has as its system TNFα. Put plainly: Cot Monocyte TNFα Cell Based Assay.
The mark [3] stands for this setting: Homo sapiens, Monocyte, read-out: EC50 TNF, LPS-stimulated human monocytes, TNFα.

Chain of Human Cot (P41279 30-397): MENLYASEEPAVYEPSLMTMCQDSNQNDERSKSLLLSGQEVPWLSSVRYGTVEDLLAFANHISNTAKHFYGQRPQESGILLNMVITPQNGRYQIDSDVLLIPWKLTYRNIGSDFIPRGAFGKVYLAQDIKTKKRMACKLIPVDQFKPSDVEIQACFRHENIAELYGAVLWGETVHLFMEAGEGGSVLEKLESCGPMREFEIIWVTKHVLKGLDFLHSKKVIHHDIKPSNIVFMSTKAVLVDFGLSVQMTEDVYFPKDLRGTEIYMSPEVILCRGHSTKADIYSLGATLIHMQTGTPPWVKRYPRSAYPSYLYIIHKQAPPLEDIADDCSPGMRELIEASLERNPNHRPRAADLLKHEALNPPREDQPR

In turn, `Cc1nc(F)ccc1[C@H](Nc1cc(Cl)c2ncc(C#N)c(NCC(C)(C)C)c2c1)c1cn(C2(C(F)(F)F)CC2)nn1` [Example 432, (S)-8-chloro-6-(((6-fluoro-2-methyl-pyridin-3-yl)(1-(1-(trifluoromethyl)-cyclopropyl)-1H-1,2,3-triazol-4-yl)methyl)amino)-4-(neopentylamino)-quinoline-3-carbonitrile] gave an IC50 in test [1] (IC50 HTRF) of 6 nM. Further, the EC50 in test [2] (setting [3]) worked out at 89 nM.

Consider `CC(C)(C)CNc1c(C#N)cnc2c(C#N)cc(N[C@H](c3cn(C4CC4)nn3)c3csc4c3CCN(C3COC3)C4)cc12` [Example 433, (S)-6-(((1-cyclopropyl-1H-1,2,3-triazol-4-yl)(6-(oxetan-3-yl)-4,5,6,7-tetrahydrothieno[2,3-c]pyridin-3-yl)methyl)amino)-4-(neopentylamino)-quinoline-3,8-dicarbonitrile], for which the IC50 in test [1] (IC50 HTRF) stood at 1 nM. The EC50 in test [2] (setting [3]) amounted to 65 nM.

Consider `CC(C)(C)CNc1c(C#N)cnc2c(C#N)cc(N[C@H](c3cn(C4(C)CC4)nn3)c3cccc4ncsc34)cc12` [Example 435, (S)-6-((benzo[d]thiazol-7-yl(1-(1-methylcyclopropyl)-1H-1,2,3-triazol-4-yl)methyl)amino)-4-(neopentylamino)-quinoline-3,8-dicarbonitrile], for which the IC50 in test [1] (IC50 HTRF) was determined as 1 nM. Also, in test [2] (setting [3]), the EC50 was determined as 24 nM.

`CC(C)(C)CNc1c(C#N)cnc2c(Cl)cc(N[C@H](c3cn(C4CC4)nn3)c3ccc(F)nc3Cl)cc12` [Example 436, (S)-8-chloro-6-(((2-chloro-6-fluoro-pyridin-3-yl)(1-cyclopropyl-1H-1,2,3-triazol-4-yl)methyl)amino)-4-(neo-pentylamino)quinoline-3-carbonitrile] came in with an IC50 in test [1] (IC50 HTRF) of 5 nM. Further, the concentration for a half-maximal effect (EC50) in test [2] (setting [3]) was 289 nM.

`CC(C)(C)CNc1c(C#N)cnc2c(Cl)cc(N[C@H](c3cn(C4CC4)nn3)c3cccc4ncccc34)cc12` [Example 437, (S)-8-chloro-6-(((1-cyclopropyl-1H-1,2,3-triazol-4-yl)(quinolin-5-yl)methyl)amino)-4-(neopentylamino)quinoline-3-carbonitrile] registered a concentration for half-maximal inhibition (IC50) in test [1] (IC50 HTRF) of 2 nM. Further, the EC50 in test [2] (setting [3]) was 82 nM.

In the case of `Cc1nc(F)ccc1[C@@H](Nc1cc(Cl)c2ncc(C#N)c(N[C@H](CCC#N)c3ccccc3)c2c1)c1cn(C2CC2)nn1` [Example 438, 8-chloro-4-(((R)-3-cyano-1-phenyl-propyl)amino)-6-(((R)-(1-cyclopropyl-1H-1,2,3-triazol-4-yl)(6-fluoro-2-methylpyridin-3-yl)methyl)amino)-quinoline-3-carbonitrile], half-maximal inhibition in test [1] (IC50 HTRF) (IC50) was put at 473 nM. The EC50 in test [2] (setting [3]) was found to be 1000 nM.

In the case of `CC[C@@H](Nc1c(C#N)cnc2c(Cl)cc(N[C@H](c3cn(C4(C(F)(F)F)CC4)nn3)c3ccc(F)nc3C)cc12)c1ccccc1` [Example 440, 8-chloro-6-(((S)-(6-fluoro-2-methyl-pyridin-3-yl)(1-(1-(trifluoromethyl)-cyclopropyl)-1H-1,2,3-triazol-4-yl)methyl)amino)-4-(((R)-1-phenyl-propyl)amino)quinoline-3-carbonitrile], the IC50 in test [1] (IC50 HTRF) stood at 7 nM. Also, in test [2] (setting [3]), the EC50 was 171 nM.

Compound `CC(C)(C)CNc1c(C#N)cnc2c(S(C)(=O)=O)cc(N[C@H](c3cn(C4(C(F)(F)F)CC4)nn3)c3cccc4ncsc34)cc12` [Example 442, (S)-6-((benzo[d]thiazol-7-yl(1-(1-(trifluoromethyl)cyclopropyl)-1H-1,2,3-triazol-4-yl)methyl)amino)-8-(methyl-sulfonyl)-4-(neopentylamino)quinoline-3-carbonitrile] gave a 50% inhibitory concentration (IC50) in test [1] (IC50 HTRF) of 56 nM. In addition, the EC50 in test [2] (setting [3]) worked out at 2690 nM.

The compound `CC(C)(C)CNc1c(C#N)cnc2c(Cl)cc(N[C@H](c3cn(C4CC4)nn3)c3cccc4cnccc34)cc12` [Example 443, (S)-8-chloro-6-(((1-cyclopropyl-1H-1,2,3-triazol-4-yl)(isoquinolin-5-yl)methyl)amino)-4-(neopentylamino)quinoline-3-carbonitrile] registered an IC50 in test [1] (IC50 HTRF) of 1 nM. Further, the EC50 in test [2] (setting [3]) is 19 nM.

Consider `CC(C)(C)CNc1c(C#N)cnc2c(C#N)cc(N[C@H](c3cn(C4(C(F)F)CC4)nn3)c3cccn4nccc34)cc12` [Example 444], for which, in test [1] (read-out: IC50 HTRF), the IC50 turned out to be 2 nM. In test [2] (read-out: EC50 TNF, LPS-stimulated human monocytes, TNFα), the EC50 turned out to be 33 nM.

In test [1] (IC50 HTRF), `CC(C)(C)CNc1c(C#N)cnc2c(Cl)cc(N[C@H](c3cn(C4CC4)nn3)c3cccn4cncc34)cc12` [Example 446, (S)-8-chloro-6-(((1-cyclopropyl-1H-1,2,3-triazol-4-yl)(imidazo[1,5-a]pyridin-8-yl)methyl)amino)-4-(neopentylamino)-quinoline-3-carbonitrile] gave an IC50 of 3 nM. Besides, in test [2] (setting [3]), the EC50 came to 156 nM.

`Cc1nc(F)ccc1[C@H](Nc1cc(Cl)c2ncc(C#N)c(NCC(C)(C)C)c2c1)c1cn(C2(C(F)F)CC2)nn1` [Example 447, (S)-8-chloro-6-(((1-(1-(difluoromethyl)-cyclopropyl)-1H-1,2,3-triazol-4-yl)(6-fluoro-2-methylpyridin-3-yl)methyl)-amino)-4-(neopentylamino)quinoline-3-carbonitrile]: in test [1] (IC50 HTRF), half-maximal inhibition (IC50) required 2 nM. The concentration for a half-maximal effect (EC50) in test [2] (setting [3]) came to 40 nM.

Regarding `CC(C)(C)CNc1c(C#N)cnc2c(Cl)cc(N[C@H](c3cn(C4CC4)nn3)c3cccc4[nH]ncc34)cc12` [Example 448, (S)-8-chloro-6-(((1-cyclopropyl-1H-1,2,3-triazol-4-yl)(1H-indazol-4-yl)methyl)-amino)-4-(neopentylamino)quinoline-3-carbonitrile], half-maximal inhibition in test [1] (IC50 HTRF) (IC50) was put at 2 nM. The EC50 in test [2] (setting [3]) is 44 nM.

In test [1] (IC50 HTRF), `CC(C)(C)CNc1c(C#N)cnc2c(Cl)cc(N[C@H](c3cn(C4CC4)nn3)c3cccc4scnc34)cc12` [Example 449, (S)-6-((benzo[d]thiazol-4-yl(1-cyclopropyl-1H-1,2,3-triazol-4-yl)methyl)amino)-8-chloro-4-(neopentylamino)quinoline-3-carbonitrile] displayed an IC50 of 19 nM. In addition, the EC50 in test [2] (setting [3]) was 407 nM.

With `CC(C)(C)CNc1c(C#N)cnc2c(Cl)cc(N[C@H](c3cn(C4CC4)nn3)c3cccc4cccnc34)cc12` [Example 450, (S)-8-chloro-6-(((1-cyclopropyl-1H-1,2,3-triazol-4-yl)(quinolin-8-yl)methyl)amino)-4-(neopentylamino)quinoline-3-carbonitrile], in test [1] (IC50 HTRF), the concentration for half-maximal inhibition (IC50) turned out to be 20 nM. In test [2] (setting [3]), the EC50 is 356 nM.

In test [1] (IC50 HTRF), `CC(C)(C)CNc1c(C#N)cnc2c(C#N)cc(N[C@H](c3cn(C4(C(F)(F)F)CC4)nn3)c3cccc4c3CNC4)cc12` [Example 451, (S)-6-((isoindolin-4-yl(1-(1-(trifluoro-methyl)cyclopropyl)-1H-1,2,3-triazol-4-yl)methyl)amino)-4-(neopentylamino)-quinoline-3,8-dicarbonitrile] returned an IC50 of 3 nM. Also, the EC50 in test [2] (setting [3]) is 138 nM.

With `CC1(C)COCCC1Nc1c(C#N)cnc2c(C#N)cc(N[C@H](c3cn(C4(C(F)(F)F)CC4)nn3)c3cccc4ncsc34)cc12` (stereo partly drawn) [Example 452, 6-(((S)-benzo[d]thiazol-7-yl(1-(1-(trifluoromethyl)cyclopropyl)-1H-1,2,3-triazol-4-yl)methyl)amino)-4-((3,3-dimethyltetrahydro-2H-pyran-4-yl)amino)quinoline-3,8-dicarbonitrile], the IC50 in test [1] (IC50 HTRF) is 4 nM. Also, in test [2] (setting [3]), the EC50 was determined as 73 nM.

For the origin of these results see patent US11066414B2, “Cot modulators and methods of use thereof” (Gilead Sciences, Inc., priority 2015, dated 2021).
